The values that follow come from patent publication US6403644B1, “Method of treating disease with sulfonylamino acid derivatives” (Ono Pharmaceutical Co., Ltd., priority 1995, dated 2002).

Each structure is given as a SMILES string.

The target in this assay is T1, gelatinase A (Homo sapiens, UniProt P08253).
T1 construct: endogenous in cells; host or cells: human normal skin dermal fibroblasts (HNDF)
T1 sequence (P08253 110-660): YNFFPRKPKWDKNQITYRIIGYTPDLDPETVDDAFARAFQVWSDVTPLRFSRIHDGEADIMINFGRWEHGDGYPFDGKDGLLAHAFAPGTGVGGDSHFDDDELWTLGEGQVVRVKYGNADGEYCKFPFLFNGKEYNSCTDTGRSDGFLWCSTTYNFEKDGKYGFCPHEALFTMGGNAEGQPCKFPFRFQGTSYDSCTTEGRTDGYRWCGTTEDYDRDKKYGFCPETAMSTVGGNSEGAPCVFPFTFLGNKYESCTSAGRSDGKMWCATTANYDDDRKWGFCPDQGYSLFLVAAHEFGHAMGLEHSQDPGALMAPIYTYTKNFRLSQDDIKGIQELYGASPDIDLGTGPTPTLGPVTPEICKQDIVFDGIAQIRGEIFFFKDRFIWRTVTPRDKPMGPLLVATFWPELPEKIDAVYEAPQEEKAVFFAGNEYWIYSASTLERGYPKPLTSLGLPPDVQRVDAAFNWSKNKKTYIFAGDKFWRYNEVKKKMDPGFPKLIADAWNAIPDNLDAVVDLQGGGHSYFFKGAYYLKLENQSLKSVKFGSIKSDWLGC
The experiment in a line: Inhibitory activity against gelatinase A (FITC-labeled gelatin degradation). In kind it is biochemical. To be noted: progelatinase A from human normal skin dermal fibroblasts (HNDF), APMA-activated, 2 hours at 37° C., read-out: IC50 for inhibition of gelatinase A activity. The procedure:
The potency of inhibitory activity against each matrix metalloproteinases is confirmed as below. The IC50 value for inhibition of gelatinase A activity is determined as follows.
(1) Inhibitory activity against gelatinase A
The progelatinase A (7 μl; in assay buffer (90 μl)) was purified from human normal skin dermal fibroblasts (HNDF). It was activated by the addition of 10 mM of p-aminophenylmercuric acetate (APMA) (10 μl) for 1 hour at 37° C.
The solution of activated gelatinase A (7 μl/tube, 98 μl) was mixed with various concentrations of the test compound or dimethylsulfoxide (2 μl) and gelatin (100 μl) labeled with 0.05% fluorescein isothiocyanate (FITC) and incubated for 2 hours at 37° C. The reaction was terminated by the addition of 0.1M Tris-HCl (pH9.5) containing 94.7% ethanol (750 μl). The mixture was stirred and then allowed to stand for 30 minutes at 0° C. The mixture was centrifuged for 30 minutes at 900×g. The IC50 was determined by measuring the fluorescent intensity in supernatant (Ex=495 nm, and Em=520 nm).

The IC50 is the point on the concentration scale where inhibition reaches its midpoint. With `O=C(O)CNS(=O)(=O)c1ccc(NC(=O)c2ccc(F)cc2)cc1` [Example 2(11), N-[[4-(4-Fluorobenzoylamino)phenyl]sulfonyl]glycine], the IC50 worked out at 800 nM. In the case of `Cc1ccc(C(=O)Nc2ccc(S(=O)(=O)NCC(=O)O)cc2)cc1` [compound 2], the IC50 is 110 nM.

On to `CCCCCc1ccc(C(=O)Nc2ccc(S(=O)(=O)N[C@H](Cc3ccccc3)C(=O)O)cc2)cc1` [Example 2(63), N-[[4-(4-Pentylbenzoylamino)phenyl]sulfonyl]-D-phenylalanine], for which the concentration for half-maximal inhibition (IC50) is 2.3 nM. Take `O=C(O)CNS(=O)(=O)c1ccc(NC(=O)c2ccccc2)cc1` [Example 2(10), N-[[4-(Benzoylamino)phenyl]sulfonyl]glycine]: the IC50 stood at 660 nM. As for `O=C(O)CNS(=O)(=O)c1ccc(OC(=O)c2ccccc2)cc1` [compound 6], the figure is 420 nM. `Cc1ccc(C(=O)Nc2ccc(S(=O)(=O)N[C@H](Cc3c[nH]c4ccccc34)C(=O)O)cc2)cc1` [Example 3(13), N-[[4-(p-Toluoylamino)phenyl]sulfonyl]-D-tryptophan]: the IC50 turned out to be 2.7 nM. Regarding `CCCCCc1ccc(C(=O)Nc2ccc(S(=O)(=O)NCC(=O)O)cc2)cc1` [Example 2(35), N-[[4-(4-Pentylbenzoylamino)phenyl]sulfonyl]glycine], the IC50 stood at 13 nM. Regarding `N=C(N)c1ccc(OC(=O)c2ccc(S(=O)(=O)N[C@@H](Cc3ccccc3)C(=O)O)cc2)cc1` [Example 10(1), N-[[4-(4-Amidinophenoxycarbonyl)phenyl]sulfonyl]-L-phenylalanine methansulfonate], the IC50 came to 700 nM.
